From PubChem BioAssay AID2060622 (Molecular Pharmacology Branch, DTP, NCI, 2025)

System: 242566-281-R-J2-PDC complex spheroid viability
Assay: Anticancer human tumor 242566-281-R-J2-PDC patient-derived pancreatic carcinoma cell line growth inhibition [CLK]
Conditions: for IC50: curve of first compound; for viability, T/C: stronger effect = lower value; active means viability on the fitted dose curve at most 10% of control; inactive means the rest
Description: A high-throughput screen of multi-cell type tumor spheroids was designed to identify active combinations of […] and targeted small molecules. Complex spheroids include a stromal component modeled by human endothelial cells (HUVEC) and fibroblasts modeled by human mesenchymal stem cells (MSCs). The concentration ranges selected for each drug and investigational agent were based upon clinically achievable concentrations if the clinical Cmax of the agent was known.
Compounds. The drugs and investigational agents: cirtuvivint (SM08502; NSC835563), CC-671 (NSC850746), vemurafenib (NSC761431), tapotoclax (NSC804041), sotorasib (NSC818433), adagrasib (NSC831453), MRTX-1133 (NSC836407), BAY2416964 (NSC825713), copanlisib (NSC816437), inavolisib (NSC800729), abemaciclib (NSC768073), osimertinib (NSC779217), entinostat (NSC756642), eltanexor (KPT-8602, NSC794443), venetoclax (NSC766270), ceralasertib (NSC777638), bortezomib (NSC756655), olaparib (NSC753686), talazoparib (NSC767125), alisertib (NSC759677), peposertib (NSC802822), gemcitabine (NSC613327), 5-fluorouracil (NSC19893), SN-38 (NSC673596), oxaliplatin (NSC266046), paclitaxel (NSC125973), and doxorubicin (NSC123127), were obtained from the National Cancer Institute (NCI) Developmental Therapeutics Program Chemical Repository. The FDA-approved anticancer drug set is available from the Developmental Therapeutics Program at https://dtp.cancer.gov/organization/dscb/obtaining/available plates.htm. […] The stock solutions were prepared in dimethyl sulfoxide (DMSO, Sigma-Aldrich, St. Louis, MO, cat. D2650), except for the platinum complexes which were prepared in saline (Quality Biological, Gaithersburg, MD, cat. 114-055-101), at 800-fold the tested concentration and stored at -70 degrees C prior to their use. All drugs and investigational agents were tested over a range starting from a high concentration at or near the clinical Cmax and decreasing in half-log increments. If the clinical Cmax for an agent had not been determined, the highest concentration tested was 10 microM.
Cell Culture. All cells were maintained in an incubator at 37 degrees C and 5% CO2 with 95% humidity. The PDC lines were cultured according to standard operating procedures established by the NCI PDMR. Briefly, all PDCs were thawed and cultured in Matrigel-coated flasks prepared with a working solution of 1X Ham's F-12 nutrient mix, without supplementation (Invitrogen, Waltham, MA, cat. 11765054), 100 U/mL penicillin-streptomycin (Invitrogen, cat. 15140122), and 2.5% Matrigel (Corning Inc., Corning, NY, cat. 354248) for the first three passages. The 947758-054-R-J2-PDC line was cultured in 6B/Colon 1A media, which includes advanced DMEM/F-12 (Thermo Fisher Scientific, cat. 12634028), 10 mM HEPES (Thermo Fisher Scientific, cat. 15630080), 1X GlutaMAX supplement (Thermo Fisher Scientific, cat. 35050061), 0.1 mg/mL primocin (InvivoGen, cat. ant-pm-2), 10% defined fetal bovine serum, heat inactivated (HyClone Laboratories Inc., cat. SH30070.03HI), 1.25 mM N-Acetyl-L-cysteine (Sigma-Aldrich, cat. A9165), 10 mM nicotinamide (Sigma-Aldrich, cat. N0636), 1X B-27 supplement (Thermo Fisher Scientific, cat. 17504044), 1X N-2 supplement (Thermo Fisher Scientific, cat. 17502048), and 10 microM Y-27632 dihydrochloride (Tocris Bioscience, cat. 1254). The 876862-298-R-J1-PDC was cultured in 6E media, which includes all 6B/Colon 1A media components plus 50% L-WRN conditioned media (ATCC, cat. CRL-3276), 50 ng/mL recombinant human EGF recombinant protein (hEGF; Thermo Fisher Scientific, cat. PHG0311), 10 ng/mL recombinant human fibroblast growth factor 10 (hGFG-10; PeproTech, cat. 100-26), 1 ng/mL recombinant human fibroblast growth factor 2 (hFGF-2; PeproTech, cat. 100-18B), and 1 µM prostaglandin E2 (PGE2; Tocris, cat. 2296). The 227483-062-R1-J1-PDC line was cultured in Panc media, containing all 6E components except hFGF-2, with the addition of 500 nM SB-431542 (Selleckchem, cat. S1067) and 10 nM gastrin (Tocris, cat. 3006). […]

[1] = second compound 0.0316 µM, first compound 0.0316 µM
[2] = second compound 0.0316 µM, first compound 0.1 µM
[3] = second compound 0.0316 µM, first compound 0.316 µM
[4] = second compound 0.0316 µM, first compound 1 µM
[5] = second compound 0.1 µM, first compound 0.0316 µM
[6] = second compound 0.1 µM, first compound 0.1 µM
[7] = second compound 0.1 µM, first compound 0.316 µM
[8] = second compound 0.1 µM, first compound 1 µM
[9] = second compound 0.316 µM, first compound 0.0316 µM
[10] = second compound 0.316 µM, first compound 0.1 µM
[11] = second compound 0.316 µM, first compound 0.316 µM
[12] = second compound 0.316 µM, first compound 1 µM
[13] = second compound 1 µM, first compound 0.0316 µM
[14] = second compound 1 µM, first compound 0.1 µM
[15] = second compound 1 µM, first compound 0.316 µM
[16] = second compound 1 µM, first compound 1 µM
[17] = second compound 3.16 µM, first compound 0.0316 µM
[18] = second compound 3.16 µM, first compound 0.1 µM
[19] = second compound 3.16 µM, first compound 0.316 µM
[20] = second compound 3.16 µM, first compound 1 µM
[21] = second compound 10 µM, first compound 0.0316 µM
[22] = second compound 10 µM, first compound 0.1 µM
[23] = second compound 10 µM, first compound 0.316 µM
[24] = second compound 10 µM, first compound 1 µM
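Further: spheroids exposed to compounds for 7 days before readout.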
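Wherever viability, T/C is given: 100% = DMSO vehicle control wells.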

CC(CO)NC(=O)c1cc(-c2ccc(Cl)cc2)nn(-c2cnn(C)c2)c1=O (centres undefined) + CN1CCN(c2cc(C(=O)Nc3cc4cc(-c5cnn(C)c5)ccc4cn3)ccn2)CC1
active: viability, T/C [13] 4.91% | viability, T/C [14] 5.11% | viability, T/C [15] 5.14% | viability, T/C [16] 5.04% | viability, T/C (second compound 1 µM, first compound 3.16 µM) 4.52% | viability, T/C (second compound 1 µM, first compound 10 µM) 4.45% | viability, T/C [17] 6.35% | viability, T/C [18] 7.68% | viability, T/C [19] 8.66% | viability, T/C [20] 7.21% | viability, T/C (second compound 3.16 µM, first compound 3.16 µM) 7.5% | viability, T/C (second compound 3.16 µM, first compound 10 µM) 6.89% | viability, T/C [21] 2.09% | viability, T/C [22] 2.51% | viability, T/C [23] 2.07% | viability, T/C [24] 2.91% | viability, T/C (second compound 10 µM, first compound 3.16 µM) 2.05% | viability, T/C (second compound 10 µM, first compound 10 µM) 0.93%
< 31.6 nM: IC50 (second compound 0.316 µM) | IC50 (second compound 1 µM) | IC50 (second compound 3.16 µM) | IC50 (second compound 10 µM)
> 10000 nM: IC50 (second compound 0.0316 µM) | IC50 (second compound 0.1 µM)
inactive: viability, T/C [1] 95.6% | viability, T/C [2] 117% | viability, T/C [3] 129% | viability, T/C [4] 106% | viability, T/C (second compound 0.0316 µM, first compound 3.16 µM) 101% | viability, T/C (second compound 0.0316 µM, first compound 10 µM) 93.6% | viability, T/C [5] 93.5% | viability, T/C [6] 104% | viability, T/C [7] 87.3% | viability, T/C [8] 94% | viability, T/C (second compound 0.1 µM, first compound 3.16 µM) 101% | viability, T/C (second compound 0.1 µM, first compound 10 µM) 72.3% | viability, T/C [9] 38.2% | viability, T/C [10] 43% | viability, T/C [11] 39.9% | viability, T/C [12] 36.5% | viability, T/C (second compound 0.316 µM, first compound 3.16 µM) 41.5% | viability, T/C (second compound 0.316 µM, first compound 10 µM) 37.6%

COc1c(OCCCN2CCOCC2)ccc2c3n(c(=NC(=O)c4cnc(N)nc4)nc12)CCN3 + CN1CCN(c2cc(C(=O)Nc3cc4cc(-c5cnn(C)c5)ccc4cn3)ccn2)CC1
active: viability, T/C [4] 7.95% | viability, T/C [7] 9.35% | viability, T/C [8] 6.4% | viability, T/C [10] 6.56% | viability, T/C [11] 4.83% | viability, T/C [12] 5.47% | viability, T/C (second compound 1 µM, first compound 0.00316 µM) 3.43% | viability, T/C (second compound 1 µM, first compound 0.01 µM) 3.63% | viability, T/C [13] 3.24% | viability, T/C [14] 2% | viability, T/C [15] 1.83% | viability, T/C [16] 1.24% | viability, T/C (second compound 3.16 µM, first compound 0.00316 µM) 6.71% | viability, T/C (second compound 3.16 µM, first compound 0.01 µM) 6.19% | viability, T/C [17] 5.45% | viability, T/C [18] 3.96% | viability, T/C [19] 3.56% | viability, T/C [20] 2.53% | viability, T/C (second compound 10 µM, first compound 0.00316 µM) 2.33% | viability, T/C (second compound 10 µM, first compound 0.01 µM) 2.32% | viability, T/C [21] 1.35% | viability, T/C [22] 1.56% | viability, T/C [23] 1.19% | viability, T/C [24] 1.26%
25.5 nM: IC50 (second compound 0.0316 µM)
19.4 nM: IC50 (second compound 0.1 µM)
inactive: viability, T/C (second compound 0.0316 µM, first compound 0.00316 µM) 91% | viability, T/C (second compound 0.0316 µM, first compound 0.01 µM) 74.5% | viability, T/C [1] 43.5% | viability, T/C [2] 22.1% | viability, T/C [3] 12.3% | viability, T/C (second compound 0.1 µM, first compound 0.00316 µM) 85.6% | viability, T/C (second compound 0.1 µM, first compound 0.01 µM) 69.5% | viability, T/C [5] 34.6% | viability, T/C [6] 18.1% | viability, T/C (second compound 0.316 µM, first compound 0.00316 µM) 34% | viability, T/C (second compound 0.316 µM, first compound 0.01 µM) 28.9% | viability, T/C [9] 17.4%
< 3.16 nM: IC50 (second compound 0.316 µM) | IC50 (second compound 1 µM) | IC50 (second compound 3.16 µM) | IC50 (second compound 10 µM)
